Read-outs that look alike come from different tables or passages of the source.
Key:
Type in all cases: in vivo
[1] = tested on: ragweed (common ragweed, Ambrosia elatior); test: Test A postemergence; conditions: Ambrosia artemisiifolia, post-emergence, 240 h, 125 g ai/ha
Outline: (§1)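 Seeded soil received test chemicals as a preemergence directed spray, and seedlings at one to two leaves, 2–10 cm tall, received them postemergence, in a non-phytotoxic, surfactant-containing solvent mixture. Pots were held in a greenhouse for approximately 10 d, then rated for injury from 0, no effect, to 100, complete control.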

corn (Zea mays) = test: Test A postemergence; conditions: Zea mays, post-emergence, 240 h, 125 g ai/ha; for Corn plant response rating (crop injury, 0 = no effect, 100 = complete kill) at 125 g/ha: Postemergence, visual injury after approximately 10 d, 0 to 100 scale where 0 is no effect and 100 is complete control
Outline: as §1

[2] = tested on: wheat (Triticum aestivum); test: Test A postemergence; conditions: Triticum aestivum, post-emergence, 240 h, 125 g ai/ha
Outline: as §1

[3] = tested on: Galium (catchweed bedstraw, Galium aparine); test: Test A postemergence; conditions: Galium, post-emergence, 240 h, 125 g ai/ha
Outline: as §1

Kochia (Kochia scoparia) [4] = test: Test A postemergence; conditions: Bassia scoparia, post-emergence, 240 h, 125 g ai/ha
Outline: as §1

[5] = tested on: pigweed (Amaranthus retroflexus); test: Test A postemergence; conditions: Amaranthus retroflexus, post-emergence, 240 h, 125 g ai/ha
Outline: as §1

[6] = tested on: blackgrass (Alopecurus myosuroides); test: Test A postemergence; conditions: Alopecurus myosuroides, post-emergence, 240 h, 125 g ai/ha
Outline: as §1

[7] = tested on: ryegrass, Italian (Italian ryegrass, Lolium multiflorum); test: Test A postemergence; conditions: Lolium multiflorum, post-emergence, 240 h, 125 g ai/ha
Outline: as §1

[8] = tested on: barnyardgrass (Echinochloa crus-galli); test: Test A postemergence; conditions: Echinochloa crus-galli, post-emergence, 240 h, 125 g ai/ha
Outline: as §1

[9] = tested on: giant foxtail (Setaria faberii); test: Test A postemergence; conditions: Setaria faberi, post-emergence, 240 h, 125 g ai/ha
Outline: as §1

[10] = tested on: ragweed (common ragweed, Ambrosia elatior); test: Test A preemergence; conditions: Ambrosia artemisiifolia, pre-emergence, 240 h; for pest or weed control at 125 g/ha: 125 g ai/ha; for pest or weed control at 500 g/ha: 500 g ai/ha
Outline: as §1

Kochia (Kochia scoparia) [11] = test: Test A preemergence; conditions: Bassia scoparia, pre-emergence, 240 h; for pest or weed control at 125 g/ha: 125 g ai/ha; for pest or weed control at 500 g/ha: 500 g ai/ha
Outline: as §1

[12] = tested on: pigweed (Amaranthus retroflexus); test: Test A preemergence; conditions: Amaranthus retroflexus, pre-emergence, 240 h; for pest or weed control at 125 g/ha: 125 g ai/ha; for pest or weed control at 500 g/ha: 500 g ai/ha
[13] = tested on: ryegrass, Italian (Italian ryegrass, Lolium multiflorum); test: Test A preemergence; conditions: Lolium multiflorum, pre-emergence, 240 h; for pest or weed control at 125 g/ha: 125 g ai/ha; for pest or weed control at 500 g/ha: 500 g ai/ha
Outline: as §1

[14] = tested on: barnyardgrass (Echinochloa crus-galli); test: Test A preemergence; conditions: Echinochloa crus-galli, pre-emergence, 240 h; for pest or weed control at 125 g/ha: 125 g ai/ha; for pest or weed control at 500 g/ha: 500 g ai/ha
Outline: as §1

[15] = Postemergence, visual injury after approximately 10 d, 0 to 100 scale where 0 is no effect and 100 is complete control, read-out: Plant response rating, Ragweed
[16] = Postemergence, visual injury after approximately 10 d, 0 to 100 scale where 0 is no effect and 100 is complete control, read-out: Plant response rating, Wheat
[17] = Postemergence, visual injury after approximately 10 d, 0 to 100 scale where 0 is no effect and 100 is complete control, read-out: Plant response rating, Galium
[18] = Postemergence, visual injury after approximately 10 d, 0 to 100 scale where 0 is no effect and 100 is complete control, read-out: Plant response rating, Kochia
[19] = Postemergence, visual injury after approximately 10 d, 0 to 100 scale where 0 is no effect and 100 is complete control, read-out: Plant response rating, Pigweed
[20] = Postemergence, visual injury after approximately 10 d, 0 to 100 scale where 0 is no effect and 100 is complete control, read-out: Plant response rating, Blackgrass
[21] = Postemergence, visual injury after approximately 10 d, 0 to 100 scale where 0 is no effect and 100 is complete control, read-out: Plant response rating, Ryegrass, Italian
[22] = Postemergence, visual injury after approximately 10 d, 0 to 100 scale where 0 is no effect and 100 is complete control, read-out: Plant response rating, Barnyardgrass
[23] = Postemergence, visual injury after approximately 10 d, 0 to 100 scale where 0 is no effect and 100 is complete control, read-out: Plant response rating, Foxtail, Giant
[24] = Preemergence, visual injury rating after approximately 10 d, read-out: Ragweed plant response rating (0 to 100 scale, 0 is no effect, 100 is complete control)
[25] = preemergence, visual injury rating about 10 d after treatment, 0 to 100 scale (0 no effect, 100 complete control), read-out: Ragweed plant response rating
[26] = Preemergence, visual injury rating after approximately 10 d, read-out: Kochia plant response rating (0 to 100 scale, 0 is no effect, 100 is complete control)
[27] = preemergence, visual injury rating about 10 d after treatment, 0 to 100 scale (0 no effect, 100 complete control), read-out: Kochia plant response rating
[28] = Preemergence, visual injury rating after approximately 10 d, read-out: Pigweed plant response rating (0 to 100 scale, 0 is no effect, 100 is complete control)
[29] = preemergence, visual injury rating about 10 d after treatment, 0 to 100 scale (0 no effect, 100 complete control), read-out: Pigweed plant response rating
[30] = Preemergence, visual injury rating after approximately 10 d, read-out: Ryegrass, Italian plant response rating (0 to 100 scale, 0 is no effect, 100 is complete control)
[31] = preemergence, visual injury rating about 10 d after treatment, 0 to 100 scale (0 no effect, 100 complete control), read-out: Ryegrass, Italian plant response rating
[32] = Preemergence, visual injury rating after approximately 10 d, read-out: Barnyardgrass plant response rating (0 to 100 scale, 0 is no effect, 100 is complete control)
[33] = preemergence, visual injury rating about 10 d after treatment, 0 to 100 scale (0 no effect, 100 complete control), read-out: Barnyardgrass plant response rating

CN1CC[C@H](c2ccc(OC(F)(F)F)cc2)[C@@H](C(=O)Nc2cccc(F)c2F)C1=O [Compound 999] was tested, and the pest or weed control at 125 g/ha [1, 15] was 0%, the Corn plant response rating (crop injury, 0 = no effect, 100 = complete kill) at 125 g/ha (corn (Zea mays)) was 0% and the plant injury at 125 g/ha [2, 16] was 0%. For the same compound, the pest or weed control at 125 g/ha [3, 17] was 0%, the pest or weed control at 125 g/ha (Kochia (Kochia scoparia) [4]; [18]) was 40% and the pest or weed control at 125 g/ha [5, 19] was 0%. It also gave a pest or weed control at 125 g/ha [6, 20] of 0%, a pest or weed control at 125 g/ha [7, 21] of 0% and a pest or weed control at 125 g/ha [8, 22] of 100%. The pest or weed control at 125 g/ha [9, 23] was 40%, the pest or weed control at 125 g/ha [10, 24] was 0% and the pest or weed control at 500 g/ha [10, 25] was 30%. For the same compound, the pest or weed control at 125 g/ha (Kochia (Kochia scoparia) [11]; [26]) was 0%, the pest or weed control at 500 g/ha (Kochia (Kochia scoparia) [11]; [27]) was 20% and the pest or weed control at 125 g/ha [12, 28] was 0%. The pest or weed control at 500 g/ha [12, 29] was 50%, the pest or weed control at 125 g/ha [13, 30] was 0% and the pest or weed control at 500 g/ha [13, 31] was 50%. For the same compound, the pest or weed control at 125 g/ha [14, 32] was 70% and the pest or weed control at 500 g/ha [14, 33] was 90%.
Compound Cc1c(F)ccc([C@H]2CNC(=O)[C@@H]2C(=O)Nc2ccccc2S(C)(=O)=O)c1F [Compound 832] has a pest or weed control at 125 g/ha ([1]; postemergence, visual injury rating after approximately 10 d, read-out: Ragweed plant response rating (0 to 100 scale, 0 no effect, 100 complete control)) of 20%, a plant injury at 125 g/ha (corn (Zea mays); postemergence, visual injury rating after approximately 10 d, read-out: Corn plant response rating (0 to 100 scale, 0 no effect, 100 complete control)) of 0% and a plant injury at 125 g/ha ([2]; postemergence, visual injury rating after approximately 10 d, read-out: Wheat plant response rating (0 to 100 scale, 0 no effect, 100 complete control)) of 0%. The pest or weed control at 125 g/ha ([3]; postemergence, visual injury rating after approximately 10 d, read-out: Galium plant response rating (0 to 100 scale, 0 no effect, 100 complete control)) was 50%, the pest or weed control at 125 g/ha (Kochia (Kochia scoparia) [4]; postemergence, visual injury rating after approximately 10 d, read-out: Kochia plant response rating (0 to 100 scale, 0 no effect, 100 complete control)) was 20% and the pest or weed control at 125 g/ha ([5]; postemergence, visual injury rating after approximately 10 d, read-out: Pigweed plant response rating (0 to 100 scale, 0 no effect, 100 complete control)) was 0%. For the same compound, the pest or weed control at 125 g/ha ([6]; postemergence, visual injury rating after approximately 10 d, read-out: Blackgrass plant response rating (0 to 100 scale, 0 no effect, 100 complete control)) was 0%, the pest or weed control at 125 g/ha ([7]; postemergence, visual injury rating after approximately 10 d, read-out: Ryegrass, Italian plant response rating (0 to 100 scale, 0 no effect, 100 complete control)) was 20% and the pest or weed control at 125 g/ha ([8]; postemergence, visual injury rating after approximately 10 d, read-out: Barnyardgrass plant response rating (0 to 100 scale, 0 no effect, 100 complete control)) was 70%. It also gave a pest or weed control at 125 g/ha ([9]; postemergence, visual injury rating after approximately 10 d, read-out: Foxtail, Giant plant response rating (0 to 100 scale, 0 no effect, 100 complete control)) of 0%, a pest or weed control at 125 g/ha ([10]; preemergence, 0 to 100 scale where 0 is no effect and 100 is complete control, read-out: Ragweed plant response rating) of 40% and a pest or weed control at 500 g/ha ([10]; Preemergence, visual injury vs untreated controls after approximately 10 d, read-out: Ragweed plant response rating (0 to 100 scale where 0 is no effect and 100 is complete control)) of 60%. The pest or weed control at 125 g/ha (Kochia (Kochia scoparia) [11]; preemergence, 0 to 100 scale where 0 is no effect and 100 is complete control, read-out: Kochia plant response rating) was 90%, the pest or weed control at 500 g/ha (Kochia (Kochia scoparia) [11]; Preemergence, visual injury vs untreated controls after approximately 10 d, read-out: Kochia plant response rating (0 to 100 scale where 0 is no effect and 100 is complete control)) was 100% and the pest or weed control at 125 g/ha ([12]; preemergence, 0 to 100 scale where 0 is no effect and 100 is complete control, read-out: Pigweed plant response rating) was 0%. For the same compound, the pest or weed control at 500 g/ha ([12]; Preemergence, visual injury vs untreated controls after approximately 10 d, read-out: Pigweed plant response rating (0 to 100 scale where 0 is no effect and 100 is complete control)) was 30%, the pest or weed control at 125 g/ha ([13]; preemergence, 0 to 100 scale where 0 is no effect and 100 is complete control, read-out: Ryegrass, Italian plant response rating) was 0% and the pest or weed control at 500 g/ha ([13]; Preemergence, visual injury vs untreated controls after approximately 10 d, read-out: Ryegrass, Italian plant response rating (0 to 100 scale where 0 is no effect and 100 is complete control)) was 30%. For the same compound, the pest or weed control at 125 g/ha ([14]; preemergence, 0 to 100 scale where 0 is no effect and 100 is complete control, read-out: Barnyardgrass plant response rating) was 40% and the pest or weed control at 500 g/ha ([14]; Preemergence, visual injury vs untreated controls after approximately 10 d, read-out: Barnyardgrass plant response rating (0 to 100 scale where 0 is no effect and 100 is complete control)) was 80%.
O=C1NC[C@H](c2cc(C(F)(F)F)ccn2)[C@H]1C(=O)Nc1ccccc1F [Compound 948] gave a pest or weed control at 125 g/ha [1, 15] of 0%, a Corn plant response rating (crop injury, 0 = no effect, 100 = complete kill) at 125 g/ha (corn (Zea mays)) of 0% and a plant injury at 125 g/ha [2, 16] of 0%. For the same compound, the pest or weed control at 125 g/ha [3, 17] was 0%, the pest or weed control at 125 g/ha (Kochia (Kochia scoparia) [4]; [18]) was 0% and the pest or weed control at 125 g/ha [5, 19] was 0%. The pest or weed control at 125 g/ha [6, 20] was 0%, the pest or weed control at 125 g/ha [7, 21] was 0% and the pest or weed control at 125 g/ha [8, 22] was 70%. The pest or weed control at 125 g/ha [9, 23] was 70%, the pest or weed control at 125 g/ha [10, 24] was 0% and the pest or weed control at 500 g/ha [10, 25] was 0%. The pest or weed control at 125 g/ha (Kochia (Kochia scoparia) [11]; [26]) was 0%, the pest or weed control at 500 g/ha (Kochia (Kochia scoparia) [11]; [27]) was 0% and the pest or weed control at 125 g/ha [12, 28] was 0%. It also gave a pest or weed control at 500 g/ha [12, 29] of 0%, a pest or weed control at 125 g/ha [13, 30] of 0% and a pest or weed control at 500 g/ha [13, 31] of 0%. It also gave a pest or weed control at 125 g/ha [14, 32] of 70% and a pest or weed control at 500 g/ha [14, 33] of 90%.
